{"source": "ChEMBL document CHEMBL1143068", "about": "“Isoform-selective inhibition of the human UDP-glucuronosyltransferase 2B7 by isolongifolol derivatives” (J Med Chem, 2007)", "key": {"UGT2B10": {"molecular_target": "T1, UGT2B10 (Homo sapiens, UniProt P36537)", "T1 sequence (P36537 whole entry)": "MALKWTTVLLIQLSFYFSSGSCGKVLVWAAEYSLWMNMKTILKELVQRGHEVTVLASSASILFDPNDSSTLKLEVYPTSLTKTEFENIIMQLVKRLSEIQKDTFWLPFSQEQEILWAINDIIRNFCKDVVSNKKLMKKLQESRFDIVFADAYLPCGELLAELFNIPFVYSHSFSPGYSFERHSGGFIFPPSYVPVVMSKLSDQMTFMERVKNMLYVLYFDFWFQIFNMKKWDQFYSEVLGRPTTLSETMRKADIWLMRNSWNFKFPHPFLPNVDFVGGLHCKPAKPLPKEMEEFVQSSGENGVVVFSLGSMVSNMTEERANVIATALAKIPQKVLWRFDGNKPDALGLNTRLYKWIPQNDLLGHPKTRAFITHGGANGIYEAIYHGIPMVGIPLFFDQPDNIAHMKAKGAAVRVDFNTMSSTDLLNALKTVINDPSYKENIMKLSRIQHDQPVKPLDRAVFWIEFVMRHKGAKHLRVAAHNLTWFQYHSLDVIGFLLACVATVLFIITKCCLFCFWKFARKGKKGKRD", "experiment": "Inhibition of human recombinant UGT2B10 at 25 uM by fluorescence spectroscopy", "set-up": "scale not given: the % may be the effect or the level left", "settings": "read-out: Activity"}, "UGT2B15": {"molecular_target": "T2, UGT2B15 (Homo sapiens, UniProt P54855)", "T2 sequence (P54855 whole entry)": "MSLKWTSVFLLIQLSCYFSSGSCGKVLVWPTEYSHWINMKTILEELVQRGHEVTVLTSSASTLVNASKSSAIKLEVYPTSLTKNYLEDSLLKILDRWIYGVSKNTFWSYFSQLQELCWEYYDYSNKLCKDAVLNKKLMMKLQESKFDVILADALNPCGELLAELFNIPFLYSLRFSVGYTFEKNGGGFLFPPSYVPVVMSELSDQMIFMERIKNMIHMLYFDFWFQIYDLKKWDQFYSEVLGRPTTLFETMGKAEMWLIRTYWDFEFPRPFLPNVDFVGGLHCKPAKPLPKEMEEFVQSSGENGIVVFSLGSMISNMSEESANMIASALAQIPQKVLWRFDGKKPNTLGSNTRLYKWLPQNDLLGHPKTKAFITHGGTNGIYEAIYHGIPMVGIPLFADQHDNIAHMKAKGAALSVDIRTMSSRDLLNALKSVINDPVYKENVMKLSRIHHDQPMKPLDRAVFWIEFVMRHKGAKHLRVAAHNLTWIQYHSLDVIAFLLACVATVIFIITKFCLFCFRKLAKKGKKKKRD", "experiment": "Inhibition of human recombinant UGT2B15 at 25 uM by fluorescence spectroscopy", "set-up": "scale not given: the % may be the effect or the level left", "settings": "read-out: Activity"}, "[1]": {"molecular_target": "T3, UDP-glucuronosyltransferase 2B17 (Homo sapiens, UniProt O75795)", "T3 sequence (O75795 whole entry)": "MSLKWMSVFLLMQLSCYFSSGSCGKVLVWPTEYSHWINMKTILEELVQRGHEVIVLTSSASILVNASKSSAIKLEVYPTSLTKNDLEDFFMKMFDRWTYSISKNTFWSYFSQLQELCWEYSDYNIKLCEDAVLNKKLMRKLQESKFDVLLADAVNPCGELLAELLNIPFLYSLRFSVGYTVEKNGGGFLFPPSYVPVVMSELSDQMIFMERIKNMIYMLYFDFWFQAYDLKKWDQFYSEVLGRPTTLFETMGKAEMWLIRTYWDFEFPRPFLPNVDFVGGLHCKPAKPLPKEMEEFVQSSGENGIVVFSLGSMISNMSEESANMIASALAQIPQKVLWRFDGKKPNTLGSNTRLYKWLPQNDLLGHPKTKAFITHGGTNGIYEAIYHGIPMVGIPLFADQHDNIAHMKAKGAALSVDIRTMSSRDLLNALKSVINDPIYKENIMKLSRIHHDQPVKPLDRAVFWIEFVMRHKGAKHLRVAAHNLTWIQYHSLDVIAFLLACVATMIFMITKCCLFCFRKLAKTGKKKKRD", "experiment": "Inhibition of human recombinant UGT2B17 assessed as reduction of scopoletin glucuronidation"}, "UGT2B4": {"molecular_target": "T4, UGT2B4 (Homo sapiens, UniProt P06133)", "T4 sequence (P06133 whole entry)": "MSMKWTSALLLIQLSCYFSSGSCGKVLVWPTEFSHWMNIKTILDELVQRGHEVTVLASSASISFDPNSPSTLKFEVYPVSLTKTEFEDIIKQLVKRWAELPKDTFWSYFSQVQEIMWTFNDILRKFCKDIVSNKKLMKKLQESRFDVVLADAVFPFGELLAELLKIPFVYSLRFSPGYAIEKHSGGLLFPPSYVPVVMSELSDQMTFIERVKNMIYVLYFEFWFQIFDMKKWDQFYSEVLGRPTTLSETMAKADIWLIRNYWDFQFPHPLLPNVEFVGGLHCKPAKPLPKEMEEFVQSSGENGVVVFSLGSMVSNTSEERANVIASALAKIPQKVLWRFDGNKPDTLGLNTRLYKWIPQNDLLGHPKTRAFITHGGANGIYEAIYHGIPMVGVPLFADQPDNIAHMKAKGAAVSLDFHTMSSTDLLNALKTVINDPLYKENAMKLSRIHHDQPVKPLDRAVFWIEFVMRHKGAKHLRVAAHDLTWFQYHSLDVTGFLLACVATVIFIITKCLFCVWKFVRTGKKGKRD", "experiment": "Inhibition of human recombinant UGT2B4 at 25 uM by fluorescence spectroscopy", "set-up": "scale not given: the % may be the effect or the level left", "settings": "read-out: Activity"}, "UGT2B28": {"molecular_target": "T5, UGT2B28 (Homo sapiens, UniProt Q9BY64)", "T5 sequence (Q9BY64 whole entry)": "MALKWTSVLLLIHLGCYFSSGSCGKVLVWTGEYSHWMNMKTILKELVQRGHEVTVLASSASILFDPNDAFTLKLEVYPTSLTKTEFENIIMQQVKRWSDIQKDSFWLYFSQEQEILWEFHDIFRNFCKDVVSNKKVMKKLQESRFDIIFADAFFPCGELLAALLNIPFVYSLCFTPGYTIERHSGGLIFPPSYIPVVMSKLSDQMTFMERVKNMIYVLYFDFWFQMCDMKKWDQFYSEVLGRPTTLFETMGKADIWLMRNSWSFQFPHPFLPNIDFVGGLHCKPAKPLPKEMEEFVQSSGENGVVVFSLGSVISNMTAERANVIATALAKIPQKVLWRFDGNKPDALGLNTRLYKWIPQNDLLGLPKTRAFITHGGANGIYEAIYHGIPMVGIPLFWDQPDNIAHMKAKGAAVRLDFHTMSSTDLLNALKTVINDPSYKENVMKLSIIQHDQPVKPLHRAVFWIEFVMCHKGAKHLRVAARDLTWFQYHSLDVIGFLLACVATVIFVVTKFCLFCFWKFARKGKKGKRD", "experiment": "Inhibition of human recombinant UGT2B28 at 25 uM by fluorescence spectroscopy", "set-up": "scale not given: the % may be the effect or the level left", "settings": "read-out: Activity"}, "UGT2B17": {"molecular_target": "T6, UGT2B17 (Homo sapiens, UniProt O75795)", "T6 sequence (O75795 whole entry)": "T3 sequence (O75795 whole entry)", "experiment": "Inhibition of human recombinant UGT2B17 at 25 uM by fluorescence spectroscopy"}}}
{"smiles": "CC1(C)CCC[C@]2(C)[C@@H]([C@@H](O)c3ccccc3)[C@H]3CC[C@@H]2[C@H]31", "values": [{"measurement": "activity at 25 µM", "setting": "UGT2B10", "value": 30, "unit": "%"}, {"measurement": "activity at 25 µM", "setting": "UGT2B15", "value": 30, "unit": "%"}, {"measurement": "Ki", "setting": "[1]", "value": 21.8, "unit": "µM"}, {"measurement": "activity at 25 µM", "setting": "UGT2B4", "value": 30, "unit": "%"}, {"measurement": "activity at 25 µM", "setting": "UGT2B28", "value": 30, "unit": "%"}, {"measurement": "inhibition at 25 µM", "setting": "UGT2B17", "value": 70, "unit": "%"}]}
